The source of these data is patent publication US9340590B2 (priority 2011, dated 2016).

Data set [1] has as its system locomotor activity in male CD-1 mice. Particulars: 5 mg/kg.
Data set [2] can be described thus: in vivo. The conditions noted are these: male, CD-1, mouse, sc, 5 mg/kg, terminal exposure (peptide plasma concentration at 2 h post peptide injection), later studies, 5 mg/kg s.c.
Data set [3] has as its target T1, hNav1.3 (Homo sapiens, UniProt Q9NY46). Nature of the data set: cell-based. Particulars: IonWorks Quattro; clamped to −110 mV, depolarized to −10 mV, 5 min after compound; n=2; read-out: IWQ Use Nav1.3.
The target in a further data set is hNav1.7 (Homo sapiens, UniProt Q15858). In words: cell-based. Particulars: Nav1.7 Use IC50.
The nature of data set [4]: in vitro. The conditions noted are these: human, plasma.
Data set [5] is described as follows: in vitro. Particulars: mouse, plasma.
Data set [6] concerns the target T1, hNav1.3. In words: cell-based. It is filed as cell-based. Particulars: Nav1.3 Use IC50.
For data set [7] the following is noted: human plasma, 37° C., incubation time 0 hr (normalisation point).
Data set [8] deals with T2, hNav1.5 (Homo sapiens, UniProt Q14524). Nature of the data set: cell-based.
For data set [9] the following is noted: mouse plasma, 37° C., incubation time 0 hr (normalisation point).
The target in data set [10] is T2, hNav1.5. In words: cell-based. Particulars: read-out: Nav1.5 Use IC50.
The conditions of data set [11]: rat plasma, 37° C.
The nature of data set [12]: in vivo. The conditions noted are these: male, CD-1, mouse, sc, 5 mg/kg, terminal exposure (peptide plasma concentration at 45 min post formalin injection).

Read-outs that look alike come from different tables or passages of the source. Positions of bridges follow the written chain, without caps; N, C: chain ends. Non-standard residues stand in square brackets, D forms with d. Residues, ends and D or L forms follow the SMILES beside them. Abu = CC[C@H](N)C(=O)O

T1 sequence (Q9NY46 whole entry, looked up): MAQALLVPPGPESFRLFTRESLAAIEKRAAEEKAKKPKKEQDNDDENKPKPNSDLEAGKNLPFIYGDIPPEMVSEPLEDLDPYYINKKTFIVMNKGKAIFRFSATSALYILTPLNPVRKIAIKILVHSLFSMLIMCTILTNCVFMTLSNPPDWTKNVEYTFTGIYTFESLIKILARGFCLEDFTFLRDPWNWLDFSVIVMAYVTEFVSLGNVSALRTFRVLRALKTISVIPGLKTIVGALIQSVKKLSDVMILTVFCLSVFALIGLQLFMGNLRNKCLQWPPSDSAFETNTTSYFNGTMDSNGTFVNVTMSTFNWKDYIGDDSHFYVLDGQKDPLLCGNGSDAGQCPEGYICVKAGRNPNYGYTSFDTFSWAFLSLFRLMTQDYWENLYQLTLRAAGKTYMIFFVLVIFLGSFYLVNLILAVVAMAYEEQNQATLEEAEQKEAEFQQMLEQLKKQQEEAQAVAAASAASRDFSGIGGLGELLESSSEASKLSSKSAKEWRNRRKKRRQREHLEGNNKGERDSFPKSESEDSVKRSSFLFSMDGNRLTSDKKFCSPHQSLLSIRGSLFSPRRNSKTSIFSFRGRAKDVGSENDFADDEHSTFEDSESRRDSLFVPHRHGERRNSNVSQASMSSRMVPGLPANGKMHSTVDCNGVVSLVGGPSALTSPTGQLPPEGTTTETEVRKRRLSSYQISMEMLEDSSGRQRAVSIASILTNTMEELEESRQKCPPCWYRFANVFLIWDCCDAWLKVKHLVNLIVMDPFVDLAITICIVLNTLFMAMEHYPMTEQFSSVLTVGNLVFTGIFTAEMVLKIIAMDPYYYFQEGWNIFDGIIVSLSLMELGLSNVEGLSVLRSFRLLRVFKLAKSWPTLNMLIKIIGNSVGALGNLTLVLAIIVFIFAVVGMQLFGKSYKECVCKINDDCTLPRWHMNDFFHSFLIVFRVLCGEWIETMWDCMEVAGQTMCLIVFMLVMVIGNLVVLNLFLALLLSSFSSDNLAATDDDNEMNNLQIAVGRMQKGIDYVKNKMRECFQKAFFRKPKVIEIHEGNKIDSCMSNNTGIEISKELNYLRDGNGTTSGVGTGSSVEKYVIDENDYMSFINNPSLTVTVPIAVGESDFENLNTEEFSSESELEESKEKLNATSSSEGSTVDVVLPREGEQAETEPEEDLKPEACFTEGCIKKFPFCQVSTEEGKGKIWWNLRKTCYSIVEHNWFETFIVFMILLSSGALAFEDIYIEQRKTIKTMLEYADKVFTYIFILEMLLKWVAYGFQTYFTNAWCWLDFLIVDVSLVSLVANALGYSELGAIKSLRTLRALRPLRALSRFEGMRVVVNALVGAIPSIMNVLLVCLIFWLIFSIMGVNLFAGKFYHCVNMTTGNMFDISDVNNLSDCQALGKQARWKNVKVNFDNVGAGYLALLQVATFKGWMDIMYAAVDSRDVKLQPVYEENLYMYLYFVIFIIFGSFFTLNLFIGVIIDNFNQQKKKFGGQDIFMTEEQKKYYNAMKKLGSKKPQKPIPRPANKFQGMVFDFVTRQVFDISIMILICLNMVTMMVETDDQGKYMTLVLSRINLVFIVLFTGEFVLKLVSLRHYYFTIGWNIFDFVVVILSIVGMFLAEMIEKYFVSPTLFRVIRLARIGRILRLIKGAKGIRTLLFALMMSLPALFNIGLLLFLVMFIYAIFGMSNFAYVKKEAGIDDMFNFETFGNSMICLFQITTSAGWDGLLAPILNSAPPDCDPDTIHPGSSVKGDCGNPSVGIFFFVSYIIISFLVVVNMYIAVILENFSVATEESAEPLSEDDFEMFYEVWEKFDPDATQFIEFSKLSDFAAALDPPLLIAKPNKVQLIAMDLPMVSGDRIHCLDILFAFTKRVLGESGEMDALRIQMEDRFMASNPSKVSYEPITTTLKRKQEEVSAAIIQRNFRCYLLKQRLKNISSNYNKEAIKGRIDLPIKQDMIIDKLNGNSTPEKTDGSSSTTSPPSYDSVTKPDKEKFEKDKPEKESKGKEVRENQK
Sequence of hNav1.7 (Q15858 whole entry, looked up): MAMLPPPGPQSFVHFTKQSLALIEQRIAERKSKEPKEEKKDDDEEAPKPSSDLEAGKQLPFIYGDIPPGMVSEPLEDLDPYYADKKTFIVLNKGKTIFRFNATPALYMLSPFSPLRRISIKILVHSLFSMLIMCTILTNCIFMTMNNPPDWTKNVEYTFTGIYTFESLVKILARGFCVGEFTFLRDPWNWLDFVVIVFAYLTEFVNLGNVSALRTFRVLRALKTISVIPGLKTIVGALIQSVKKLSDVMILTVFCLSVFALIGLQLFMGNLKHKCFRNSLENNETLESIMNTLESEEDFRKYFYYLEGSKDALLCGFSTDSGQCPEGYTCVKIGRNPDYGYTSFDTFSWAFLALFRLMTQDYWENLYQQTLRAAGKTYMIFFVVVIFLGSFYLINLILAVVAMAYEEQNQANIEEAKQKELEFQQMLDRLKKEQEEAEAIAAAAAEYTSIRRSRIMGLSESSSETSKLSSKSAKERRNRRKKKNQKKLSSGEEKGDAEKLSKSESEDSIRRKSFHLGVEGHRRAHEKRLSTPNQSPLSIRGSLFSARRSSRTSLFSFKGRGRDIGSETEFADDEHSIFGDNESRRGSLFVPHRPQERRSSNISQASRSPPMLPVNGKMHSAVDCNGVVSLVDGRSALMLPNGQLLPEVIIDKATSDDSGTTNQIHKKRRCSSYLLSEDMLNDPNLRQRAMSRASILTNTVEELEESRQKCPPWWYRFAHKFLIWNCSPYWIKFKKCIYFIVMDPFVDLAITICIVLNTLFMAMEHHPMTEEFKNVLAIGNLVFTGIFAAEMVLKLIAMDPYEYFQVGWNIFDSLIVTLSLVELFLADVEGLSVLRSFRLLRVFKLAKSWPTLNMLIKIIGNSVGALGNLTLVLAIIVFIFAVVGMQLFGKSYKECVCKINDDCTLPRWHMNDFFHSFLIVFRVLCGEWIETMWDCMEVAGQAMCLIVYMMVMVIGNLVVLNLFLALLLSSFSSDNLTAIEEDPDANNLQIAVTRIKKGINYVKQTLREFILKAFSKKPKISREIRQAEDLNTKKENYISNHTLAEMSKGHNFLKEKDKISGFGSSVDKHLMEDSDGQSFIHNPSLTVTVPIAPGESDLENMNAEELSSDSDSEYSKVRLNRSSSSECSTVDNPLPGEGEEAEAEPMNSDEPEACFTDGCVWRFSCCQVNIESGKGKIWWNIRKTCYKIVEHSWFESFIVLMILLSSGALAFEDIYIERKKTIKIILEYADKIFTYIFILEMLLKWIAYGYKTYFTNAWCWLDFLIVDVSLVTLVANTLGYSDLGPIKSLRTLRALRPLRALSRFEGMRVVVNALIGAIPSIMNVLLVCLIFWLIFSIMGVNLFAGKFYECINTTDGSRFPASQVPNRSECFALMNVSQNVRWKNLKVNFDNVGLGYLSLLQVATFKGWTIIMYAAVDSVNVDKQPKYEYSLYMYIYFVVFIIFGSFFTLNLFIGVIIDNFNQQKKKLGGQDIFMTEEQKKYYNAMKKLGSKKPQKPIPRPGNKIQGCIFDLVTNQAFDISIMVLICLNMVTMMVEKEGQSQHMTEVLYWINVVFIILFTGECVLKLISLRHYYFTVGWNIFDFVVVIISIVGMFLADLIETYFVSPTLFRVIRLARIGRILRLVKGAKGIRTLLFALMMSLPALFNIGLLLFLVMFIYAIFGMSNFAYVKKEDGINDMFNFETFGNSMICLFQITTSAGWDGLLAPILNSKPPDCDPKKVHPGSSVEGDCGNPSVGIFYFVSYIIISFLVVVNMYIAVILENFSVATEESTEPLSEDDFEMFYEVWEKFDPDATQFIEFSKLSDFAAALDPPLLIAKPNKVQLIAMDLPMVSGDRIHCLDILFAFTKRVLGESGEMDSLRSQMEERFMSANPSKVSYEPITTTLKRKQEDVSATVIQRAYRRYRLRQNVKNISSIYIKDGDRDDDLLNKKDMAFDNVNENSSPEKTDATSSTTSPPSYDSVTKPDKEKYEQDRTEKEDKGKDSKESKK

With `CC[C@@H]1NC(=O)[C@H](CC(=O)O)NC(=O)[C@@H]2CCCN2C(=O)[C@H](CCC(=O)O)NC(=O)[C@@H]2CSSC[C@@H]3NC(=O)[C@H](C(C)C)NC(=O)[C@H](CC(C)C)NC(=O)[C@H](CC(N)=O)NC(=O)[C@@H]4CCCN4C(=O)[C@H](CCCNC(=N)N)NC(=O)[C@H](CSSC[C@H](NC(=O)[C@@H](N)CC(=O)O)C(=O)N[C@@H](CC(C)C)C(=O)NCC(=O)N[C@@H](C)C(=O)N[C@@H](Cc4ccccc4)C(=O)N[C@@H](CCCNC(=N)N)C(=O)N[C@@H](CCCCN)C(=O)N2)NC(=O)[C@H](CSSC[C@@H](C(=O)N[C@@H](CCCCN)C(=O)N[C@@H](Cc2ccc(O)cc2)C(=O)N[C@H](C(=O)N[C@@H](Cc2ccccc2)C(N)=O)C(C)C)NC(=O)[C@H](Cc2c[nH]c4ccccc24)NC(=O)[C@H](CCCNC(=N)N)NC(=O)[C@H](Cc2c[nH]cn2)NC(=O)[C@H](CC(C)C)NC(=O)[C@H](CCCNC(=N)N)NC(=O)[C@H](CO)NC3=O)NC(=O)[C@H](CCCCN)NC(=O)[C@H](CC(=O)O)NC1=O` (H-DCLGAFRKCEPD[Abu]DKCCRPNLVCSRLHRWCKYVF-NH2; disulfide 2-17, 9-23, 16-30), the “behavior of animals in the open field analysis” value in [1] was “moribund behavior or lethality”. Further, the level at time molar at 2 h in “in vivo [2]” was 1720 ± 313 nM.

For `CC[C@H](C)[C@@H]1NC(=O)[C@@H]2CSSC[C@@H]3NC(=O)[C@H](C(C)C)NC(=O)[C@H](CC(C)C)NC(=O)[C@H](CC(N)=O)NC(=O)[C@@H]4CCCN4C(=O)[C@H](CCCNC(=N)N)NC(=O)[C@H](CSSC[C@H](N)C(=O)N[C@@H](CC(C)C)C(=O)NCC(=O)N[C@@H](Cc4ccccc4)C(=O)N[C@@H](CCSC)C(=O)N[C@@H](CCCNC(=N)N)C(=O)N[C@@H](CCCCN)C(=O)N2)NC(=O)[C@H](CSSC[C@@H](C(=O)N[C@@H](CCCCN)C(=O)N[C@@H](Cc2ccc(O)cc2)C(=O)N[C@H](C(=O)N[C@@H](Cc2ccccc2)C(N)=O)C(C)C)NC(=O)[C@H](Cc2c[nH]c4ccccc24)NC(=O)[C@H](CCCCN)NC(=O)[C@H](Cc2cnc[nH]2)NC(=O)[C@H]([C@@H](C)O)NC(=O)[C@H](CCCNC(=N)N)NC(=O)[C@H](CO)NC3=O)NC(=O)[C@H](CCCCN)NC(=O)[C@H](CC(=O)O)NC(=O)[C@H](CC(N)=O)NC(=O)[C@H](CC(=O)O)NC(=O)[C@@H]2CCCN2C1=O` [SEQ ID NO: 108] (H-CLGFMRKCIPDNDKCCRPNLVCSRTHKWCKYVF-NH2; disulfide 1-16, 8-22, 15-29), the IC50 on hNav1.3 [3] came to 50 nM; at hNav1.7 it was 7 nM; on hNav1.3 [6], 15 nM; on hNav1.5 [8] (IonWorks Quattro, clamped to −110 mV, depolarized to −10 mV, 5 min after compound, n=2, read-out: IWQ Use Nav1.5), 8220 nM. The fraction remaining at 2 h in “in vitro [4]” was found to be 107%; in “in vitro [5]” it was 100%. Further, the amount remaining at 4 h was 92% in the data set “in vitro [4]” and 95% in the data set “in vitro [5]”. Besides, the fraction remaining at 8 h in “in vitro [4]” turned out to be 91%; in the data set “in vitro [5]” it was 87%. Further, the fraction remaining at 24 h in the data set “in vitro [4]” worked out at 82%; in the data set “in vitro [5]”, 81%. Besides, the “% peptide remaining” value in data set [7] and in [9] was 100% each time.

In the case of `CC[C@H](C)[C@@H]1NC(=O)[C@@H]2CSSC[C@@H]3NC(=O)[C@H](C(C)C)NC(=O)[C@H](CC(C)C)NC(=O)[C@H](CC(N)=O)NC(=O)[C@@H]4CCCN4C(=O)[C@H](CCCNC(=N)N)NC(=O)[C@H](CSSC[C@H](NC(=O)[C@H](CC(=O)O)NC(C)=O)C(=O)N[C@@H](CC(C)C)C(=O)NCC(=O)N[C@@H](Cc4ccccc4)C(=O)N[C@@H](CCSC)C(=O)N[C@@H](CCCNC(=N)N)C(=O)N[C@@H](CCCCN)C(=O)N2)NC(=O)[C@H](CSSC[C@@H](C(=O)N[C@@H](CCCCN)C(=O)N[C@@H](Cc2ccc(O)cc2)C(=O)N[C@H](C(=O)N[C@@H](Cc2ccccc2)C(N)=O)C(C)C)NC(=O)[C@H](Cc2c[nH]c4ccccc24)NC(=O)[C@H](CCCCN)NC(=O)[C@H](Cc2cnc[nH]2)NC(=O)[C@H]([C@@H](C)O)NC(=O)[C@H](CCCNC(=N)N)NC(=O)[C@H](CO)NC3=O)NC(=O)[C@H](CCCCN)NC(=O)[C@H](CC(=O)O)NC(=O)[C@H](CC(N)=O)NC(=O)[C@H](CC(=O)O)NC(=O)[C@@H]2CCCN2C1=O` [SEQ ID NO: 132], the IC50 at hNav1.3 [3] was determined as 220 nM; at hNav1.3 [6] it was 84 nM; against hNav1.5 [8] (IWQ Use Nav1.5) it was 12700 nM. The results for the share remaining at 2 h in the data set “in vitro [4]” and in the data set “in vitro [5]” were 100% and 105%, respectively. Also, the amount remaining at 4 h in “in vitro [4]” was 104%; in the data set “in vitro [5]”, 103%. In addition, the share remaining at 8 h worked out at 101% in the data set “in vitro [4]” and 103% in the data set “in vitro [5]”. For the same compound, the figures for the fraction remaining at 24 h in “in vitro [4]” and in the data set “in vitro [5]” were 97% and 106%, respectively. Also, the “% peptide remaining” value in [7] and in data set [9] was 100% throughout.

In the case of `CSCC[C@@H]1NC(=O)[C@H](Cc2ccccc2)NC(=O)CNC(=O)[C@H](CC(C)C)NC(=O)[C@@H](NC(=O)[C@@H](N)CC(=O)O)CSSC[C@@H]2NC(=O)[C@@H]3CSSC[C@@H](C(=O)N[C@@H](CCCCN)C(=O)N[C@@H](Cc4ccc(O)cc4)C(=O)N[C@H](C(=O)N[C@@H](Cc4ccccc4)C(N)=O)C(C)C)NC(=O)[C@H](Cc4c[nH]c5ccccc45)NC(=O)[C@H](CCCCN)NC(=O)[C@H](Cc4c[nH]cn4)NC(=O)[C@H]([C@@H](C)O)NC(=O)[C@H](CCCNC(=N)N)NC(=O)[C@H](CO)NC(=O)[C@H](CSSC[C@H](NC(=O)[C@H](CCCCN)NC(=O)[C@H](CCCNC(=N)N)NC1=O)C(=O)N[C@@H](Cc1cccc4ccccc14)C(=O)N1CCC[C@H]1C(=O)N[C@@H](CC(=O)O)C(=O)N[C@@H](CC(N)=O)C(=O)N[C@@H](CC(=O)O)C(=O)N[C@@H](CCCCN)C(=O)N3)NC(=O)[C@H](C(C)C)NC(=O)[C@H](CC(C)C)NC(=O)[C@H](CC(N)=O)NC(=O)[C@@H]1CCCN1C(=O)[C@H](CCCNC(=N)N)NC2=O` [[1-Nal10]GpTx-1(1-34)], the IC50 on hNav1.7 came to 5 nM; on hNav1.5 [10], 12900 nM; against hNav1.3 [6], 39 nM. The “% peptide remaining” value in data set [11] (incubation time 0 hr) turned out to be 100%; in data set [11] (incubation time 2 hr) it was 104%; in data set [11] (incubation time 4 hr) it was 106%; in data set [11] (incubation time 6 hr), 108%; in data set [11] (incubation time 8 hr) it was 112%; in [11] (incubation time 24 hr) it was 89%.

`CC[C@H](C)[C@@H]1NC(=O)[C@@H]2CSSC[C@@H]3NC(=O)[C@H](C(C)C)NC(=O)[C@H](CC(C)C)NC(=O)[C@H](CC(N)=O)NC(=O)[C@@H]4CCCN4C(=O)[C@H](CCCNC(=N)N)NC(=O)[C@H](CSSC[C@H](NC(=O)[C@@H](N)CC(=O)O)C(=O)N[C@@H](CC(C)C)C(=O)NCC(=O)N[C@@H](Cc4ccccc4)C(=O)N[C@@H](CCSC)C(=O)N[C@@H](CCCNC(=N)N)C(=O)N[C@@H](CCCCN)C(=O)N2)NC(=O)[C@H](CSSC[C@@H](C(=O)N[C@@H](CCCCN)C(=O)N[C@@H](Cc2ccc(O)cc2)C(=O)N[C@H](C(=O)N[C@@H](Cc2ccccc2)C(N)=O)C(C)C)NC(=O)[C@H](Cc2c[nH]c4ccccc24)NC(=O)[C@H](CCC(=O)O)NC(=O)[C@H](Cc2cnc[nH]2)NC(=O)[C@H]([C@@H](C)O)NC(=O)[C@H](CCCNC(=N)N)NC(=O)[C@H](CO)NC3=O)NC(=O)[C@H](CCCCN)NC(=O)[C@H](CC(=O)O)NC(=O)[C@H](CC(N)=O)NC(=O)[C@H](CC(=O)O)NC(=O)[C@@H]2CCCN2C1=O` [[Glu28]GpTx-1(1-34)] (H-DCLGFMRKCIPDNDKCCRPNLVCSRTHEWCKYVF-NH2; disulfide 2-17, 9-23, 16-30): the IC50 at hNav1.7 was determined as 26 nM. Further, the level at time molar at 2 h in the data set “in vivo [2]” was 1280 ± 403 nM.

The compound `CC[C@H](C)[C@@H]1NC(=O)[C@@H]2CSSC[C@@H]3NC(=O)[C@H](C(C)C)NC(=O)[C@H](CC(C)C)NC(=O)[C@H](CC(N)=O)NC(=O)[C@@H]4CCCN4C(=O)[C@H](CCCNC(=N)N)NC(=O)[C@H](CSSC[C@H](NC(=O)[C@@H](N)CC(=O)O)C(=O)N[C@@H](CC(C)C)C(=O)NCC(=O)N[C@@H](Cc4ccccc4)C(=O)N[C@@H](CCSC)C(=O)N[C@@H](CCCNC(=N)N)C(=O)N[C@@H](CCCCN)C(=O)N2)NC(=O)[C@H](CSSC[C@@H](C(=O)N[C@@H](CCCCN)C(=O)N[C@@H](Cc2ccc(O)cc2)C(=O)N[C@H](C(=O)N[C@@H](Cc2ccccc2)C(N)=O)C(C)C)NC(=O)[C@H](CCC(=O)O)NC(=O)[C@H](CCCCN)NC(=O)[C@H](Cc2cnc[nH]2)NC(=O)[C@H]([C@@H](C)O)NC(=O)[C@H](CCCNC(=N)N)NC(=O)[C@H](CO)NC3=O)NC(=O)[C@H](CCCCN)NC(=O)[C@H](CC(=O)O)NC(=O)[C@H](CC(N)=O)NC(=O)[C@H](CC(=O)O)NC(=O)[C@@H]2CCCN2C1=O` [[Glu29]GpTx-1(1-34)] (H-DCLGFMRKCIPDNDKCCRPNLVCSRTHKECKYVF-NH2; disulfide 2-17, 9-23, 16-30) returned a level at time molar at […] in “in vivo [12]” of 502 ± 271 nM. In “in vivo [2]”, the level at time molar at 2 h is 771 ± 272 nM.
